Assay results reported in patent US20220388979A1, “QUINOLINE DERIVATIVES AS PROTEIN KINASE INHIBITORS” (B.C.I. PHARMA, priority 2019, published 2022).

Legend:
Settings in all cases: at 50 nM, in duplicate
[1] = target: CSF1R (Homo sapiens, UniProt P07333); assay: Z'-Lyte biochemical kinase assay (SelectScreen), CSF1R
Description: (§1) A biochemical assay was performed in order to measure the protein kinase inhibition. The kinase binding assays were performed against different kinases using the SelectScreen Biochemical Kinase Profiling Service® platform (Thermo Fisher Scientific). For all kinases, the Z′-Lyte® biochemical kinase assay technology was used. Inhibitions were measured at 50 nM in duplicate for each compound and are reported in percentage.

[2] = target: T1, FLT3 (Homo sapiens, UniProt P36888); assay: Z'-Lyte biochemical kinase assay (SelectScreen), FLT3
T1 sequence (P36888 27-993): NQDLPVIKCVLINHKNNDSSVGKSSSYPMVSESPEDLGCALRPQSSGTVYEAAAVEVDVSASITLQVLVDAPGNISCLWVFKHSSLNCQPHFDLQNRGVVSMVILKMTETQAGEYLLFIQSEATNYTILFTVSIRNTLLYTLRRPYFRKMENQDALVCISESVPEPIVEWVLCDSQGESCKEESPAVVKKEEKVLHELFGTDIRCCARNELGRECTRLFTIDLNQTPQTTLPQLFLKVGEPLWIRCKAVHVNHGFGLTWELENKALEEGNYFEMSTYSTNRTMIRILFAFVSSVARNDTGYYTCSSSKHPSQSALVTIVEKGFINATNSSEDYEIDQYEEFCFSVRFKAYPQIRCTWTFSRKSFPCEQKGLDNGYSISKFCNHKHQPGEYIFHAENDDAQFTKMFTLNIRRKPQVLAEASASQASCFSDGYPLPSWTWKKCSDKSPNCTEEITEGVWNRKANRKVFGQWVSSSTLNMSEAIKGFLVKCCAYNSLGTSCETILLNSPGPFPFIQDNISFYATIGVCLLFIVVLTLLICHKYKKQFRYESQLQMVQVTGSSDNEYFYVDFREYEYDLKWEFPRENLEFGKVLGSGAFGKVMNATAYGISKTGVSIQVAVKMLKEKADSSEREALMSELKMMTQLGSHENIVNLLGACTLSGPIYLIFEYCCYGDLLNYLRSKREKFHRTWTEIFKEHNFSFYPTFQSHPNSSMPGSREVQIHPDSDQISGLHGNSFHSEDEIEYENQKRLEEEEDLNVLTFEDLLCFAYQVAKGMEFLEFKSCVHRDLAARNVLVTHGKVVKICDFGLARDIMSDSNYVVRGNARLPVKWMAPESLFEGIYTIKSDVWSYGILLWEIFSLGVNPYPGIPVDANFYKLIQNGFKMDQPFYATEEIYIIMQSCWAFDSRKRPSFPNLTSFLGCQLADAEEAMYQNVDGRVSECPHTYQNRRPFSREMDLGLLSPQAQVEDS
Description: as §1

[3] = target: Kit (Homo sapiens, UniProt P10721); assay: Z'-Lyte biochemical kinase assay (SelectScreen), Kit
Description: as §1

[4] = target: PDGFRA (Homo sapiens, UniProt P16234); assay: Z'-Lyte biochemical kinase assay (SelectScreen), PDGFRA
Description: as §1

[5] = target: PDGFRB (Homo sapiens, UniProt P09619); assay: Z'-Lyte biochemical kinase assay (SelectScreen), PDGFRB
Description: as §1

Chain of CSF1R (P07333 20-972): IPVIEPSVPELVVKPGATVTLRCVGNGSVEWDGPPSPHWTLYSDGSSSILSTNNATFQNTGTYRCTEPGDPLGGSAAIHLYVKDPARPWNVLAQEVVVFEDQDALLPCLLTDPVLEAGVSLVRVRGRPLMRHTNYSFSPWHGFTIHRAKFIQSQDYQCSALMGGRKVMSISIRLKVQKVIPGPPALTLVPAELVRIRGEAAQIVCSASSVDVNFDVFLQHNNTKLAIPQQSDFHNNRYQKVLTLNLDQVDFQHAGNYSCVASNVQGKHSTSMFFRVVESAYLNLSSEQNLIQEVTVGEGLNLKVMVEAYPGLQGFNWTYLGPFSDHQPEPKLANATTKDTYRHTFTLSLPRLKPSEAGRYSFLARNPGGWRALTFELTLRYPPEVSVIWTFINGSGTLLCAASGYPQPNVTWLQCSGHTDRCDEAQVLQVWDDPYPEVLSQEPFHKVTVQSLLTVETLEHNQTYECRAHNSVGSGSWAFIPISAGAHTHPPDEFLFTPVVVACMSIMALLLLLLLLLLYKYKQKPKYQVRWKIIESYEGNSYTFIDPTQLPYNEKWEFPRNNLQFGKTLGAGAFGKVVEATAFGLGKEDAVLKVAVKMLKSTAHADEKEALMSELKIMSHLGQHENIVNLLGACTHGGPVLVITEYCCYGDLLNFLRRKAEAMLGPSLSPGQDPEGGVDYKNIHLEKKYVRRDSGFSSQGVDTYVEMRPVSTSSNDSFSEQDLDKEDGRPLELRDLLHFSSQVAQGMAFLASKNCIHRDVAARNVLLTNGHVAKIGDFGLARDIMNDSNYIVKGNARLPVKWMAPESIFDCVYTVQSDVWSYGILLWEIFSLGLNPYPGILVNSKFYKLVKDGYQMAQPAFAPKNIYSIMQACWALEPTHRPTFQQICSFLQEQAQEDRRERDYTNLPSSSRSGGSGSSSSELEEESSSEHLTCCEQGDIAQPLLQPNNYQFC
Chain of Kit (P10721 26-976): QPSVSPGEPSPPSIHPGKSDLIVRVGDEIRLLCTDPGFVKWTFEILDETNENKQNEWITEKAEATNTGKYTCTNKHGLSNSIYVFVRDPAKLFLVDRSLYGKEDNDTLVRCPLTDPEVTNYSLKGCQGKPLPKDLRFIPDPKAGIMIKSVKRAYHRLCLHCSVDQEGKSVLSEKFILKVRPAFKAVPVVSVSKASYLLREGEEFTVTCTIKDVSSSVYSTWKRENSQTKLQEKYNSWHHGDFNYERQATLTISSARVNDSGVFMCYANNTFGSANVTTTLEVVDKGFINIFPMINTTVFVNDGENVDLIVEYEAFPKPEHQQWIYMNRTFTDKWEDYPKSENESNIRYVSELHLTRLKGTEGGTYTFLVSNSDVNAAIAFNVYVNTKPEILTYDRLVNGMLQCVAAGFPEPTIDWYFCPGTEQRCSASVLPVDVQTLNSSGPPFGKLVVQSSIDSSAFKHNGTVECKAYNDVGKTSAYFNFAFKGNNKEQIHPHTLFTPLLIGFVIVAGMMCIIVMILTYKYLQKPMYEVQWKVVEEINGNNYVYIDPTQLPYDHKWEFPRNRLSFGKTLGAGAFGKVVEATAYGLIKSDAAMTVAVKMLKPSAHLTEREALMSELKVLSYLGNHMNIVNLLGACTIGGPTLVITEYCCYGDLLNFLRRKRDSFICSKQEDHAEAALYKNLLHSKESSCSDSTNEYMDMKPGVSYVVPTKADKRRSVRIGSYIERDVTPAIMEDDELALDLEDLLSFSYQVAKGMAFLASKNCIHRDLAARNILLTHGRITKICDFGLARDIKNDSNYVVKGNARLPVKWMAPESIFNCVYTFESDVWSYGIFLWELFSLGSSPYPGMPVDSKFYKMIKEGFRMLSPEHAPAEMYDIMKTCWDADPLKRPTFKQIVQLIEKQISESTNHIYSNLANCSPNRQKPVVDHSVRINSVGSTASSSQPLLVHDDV
Chain of PDGFRB (P09619 33-1106): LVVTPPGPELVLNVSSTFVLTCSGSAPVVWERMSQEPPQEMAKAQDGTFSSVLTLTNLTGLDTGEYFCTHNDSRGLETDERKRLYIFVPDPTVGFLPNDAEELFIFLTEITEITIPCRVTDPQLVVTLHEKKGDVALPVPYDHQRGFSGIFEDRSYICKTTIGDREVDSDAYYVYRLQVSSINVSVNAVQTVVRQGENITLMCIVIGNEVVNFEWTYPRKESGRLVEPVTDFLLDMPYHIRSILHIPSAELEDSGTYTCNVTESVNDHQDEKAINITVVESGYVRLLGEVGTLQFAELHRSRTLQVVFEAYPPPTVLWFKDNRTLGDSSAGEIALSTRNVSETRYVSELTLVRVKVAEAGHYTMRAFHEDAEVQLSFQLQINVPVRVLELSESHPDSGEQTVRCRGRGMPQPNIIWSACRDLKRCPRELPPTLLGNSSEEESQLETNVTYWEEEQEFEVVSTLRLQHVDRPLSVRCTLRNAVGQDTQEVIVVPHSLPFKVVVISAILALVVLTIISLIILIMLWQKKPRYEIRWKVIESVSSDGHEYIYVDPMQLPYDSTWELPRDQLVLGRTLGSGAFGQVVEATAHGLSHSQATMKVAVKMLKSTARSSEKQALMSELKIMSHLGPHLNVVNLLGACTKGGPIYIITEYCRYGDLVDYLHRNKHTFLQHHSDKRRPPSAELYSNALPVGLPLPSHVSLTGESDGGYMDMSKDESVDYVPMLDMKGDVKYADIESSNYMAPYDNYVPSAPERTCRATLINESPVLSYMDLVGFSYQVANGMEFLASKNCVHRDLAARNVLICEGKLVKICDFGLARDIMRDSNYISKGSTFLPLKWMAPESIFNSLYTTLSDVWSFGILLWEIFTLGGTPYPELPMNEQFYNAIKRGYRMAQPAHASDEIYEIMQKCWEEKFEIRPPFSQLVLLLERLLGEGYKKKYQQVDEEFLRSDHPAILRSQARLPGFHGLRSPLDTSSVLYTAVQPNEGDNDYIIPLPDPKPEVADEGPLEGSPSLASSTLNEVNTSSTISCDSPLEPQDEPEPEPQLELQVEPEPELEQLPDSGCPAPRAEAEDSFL
Chain of PDGFRA (P16234 24-1089): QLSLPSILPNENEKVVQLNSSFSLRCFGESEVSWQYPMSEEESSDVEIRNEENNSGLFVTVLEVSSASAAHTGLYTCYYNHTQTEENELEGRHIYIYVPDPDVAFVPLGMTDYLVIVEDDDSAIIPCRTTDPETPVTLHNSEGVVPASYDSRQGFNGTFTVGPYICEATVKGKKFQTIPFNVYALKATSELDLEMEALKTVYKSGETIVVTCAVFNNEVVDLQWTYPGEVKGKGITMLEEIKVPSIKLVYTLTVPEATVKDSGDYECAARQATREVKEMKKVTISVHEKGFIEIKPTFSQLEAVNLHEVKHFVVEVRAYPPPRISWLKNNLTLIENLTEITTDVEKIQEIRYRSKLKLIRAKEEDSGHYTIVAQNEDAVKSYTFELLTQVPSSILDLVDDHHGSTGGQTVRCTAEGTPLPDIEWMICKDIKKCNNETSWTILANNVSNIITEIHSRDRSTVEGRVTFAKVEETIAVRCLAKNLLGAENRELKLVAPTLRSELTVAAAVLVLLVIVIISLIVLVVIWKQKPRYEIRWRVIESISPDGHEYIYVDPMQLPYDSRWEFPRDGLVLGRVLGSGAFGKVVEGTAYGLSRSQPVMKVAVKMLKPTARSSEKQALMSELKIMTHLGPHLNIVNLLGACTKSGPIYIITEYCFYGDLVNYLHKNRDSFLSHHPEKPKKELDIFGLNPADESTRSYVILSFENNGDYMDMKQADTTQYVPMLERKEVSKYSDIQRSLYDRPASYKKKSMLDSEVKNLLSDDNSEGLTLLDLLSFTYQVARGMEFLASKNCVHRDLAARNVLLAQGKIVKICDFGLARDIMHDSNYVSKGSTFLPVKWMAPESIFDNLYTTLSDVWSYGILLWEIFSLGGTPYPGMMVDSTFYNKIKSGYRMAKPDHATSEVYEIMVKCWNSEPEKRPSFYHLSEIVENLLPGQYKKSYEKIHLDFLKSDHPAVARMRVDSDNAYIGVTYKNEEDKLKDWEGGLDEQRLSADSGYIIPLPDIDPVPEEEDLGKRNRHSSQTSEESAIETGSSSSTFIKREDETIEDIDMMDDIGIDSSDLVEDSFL

Row | SMILES | inhibition at 0.05 µM [1] [%] | inhibition at 0.05 µM [2] [%] | inhibition at 0.05 µM [3] [%] | inhibition at 0.05 µM [4] [%] | inhibition at 0.05 µM [5] [%]
1 | Cc1c(Oc2ccnc3ccccc23)cccc1C(=O)NCc1ccc(C#N)cc1 [compound 30] | 72 | 10 | 8 | 8 | 11
2 | Cc1c(Oc2ccnc3cc(Cl)ccc23)cccc1C(=O)NCc1ccncc1 [Compounds 108] | 88 | 6 | 10 | 11 | 13
3 | COc1ccc2c(Oc3cccc(C(=O)NCc4ccncc4)c3C)ccnc2c1 [Compounds 32] | 96 | 8 | 2 | 2 | 6
4 | O=C(NCc1ccncc1)c1cccc(Oc2ccnc3ccccc23)c1 [compound 75] | 79 | 16 | 20 | -1 | 10
5 | O=C(NCc1cccc(F)c1)c1cccc(Oc2ccnc3ccccc23)c1 [compound 10] | 71 | 18 | 11 | 17 | 24
6 | COc1cc2nccc(Oc3cccc(C(=O)NCc4ccccc4)c3)c2cc1OC [compound 84] | 91 | 37 | 34 | 16 | 54
7 | COc1ccccc1CNC(=O)c1cccc(Oc2ccnc3ccccc23)c1 [compound 7] | 85 | 14 | 20 | 16 | 22
8 | O=C(NCc1cccnc1)c1cccc(Oc2ccnc3ccccc23)c1 [compound 74] | 83 | 25 | 20 | 7 | 12
9 | COc1ccccc1CNC(=O)c1cccc(Oc2ccnc3cc(OC)c(OC)cc23)c1 [compound 26] | 102 | 47 | 32 | 35 | 50
10 | COc1cc2nccc(Oc3cccc(C(=O)NCCc4ccccc4)c3)c2cc1OC [compound 25] | 95 | 48 | 32 | 27 | 39
11 | O=C(NCc1ccc(F)cc1)c1cccc(Oc2ccnc3ccccc23)c1 [compound 16] | 81 | 7 | 15 | 23 | 24
12 | O=C(NCc1cncc(F)c1)c1cccc(Oc2ccnc3ccccc23)c1 [compound 17] | 83 | -4 | 14 | 15 | 12
13 | COc1cc2nccc(Oc3cccc(C(=O)NCC4CCCCC4)c3)c2cc1OC [compound 27] | 93 | 39 | 26 | 23 | 44
14 | COc1cc2nccc(Oc3cccc(C(=O)NCc4cncc(F)c4)c3)c2cc1OC [compound 29] | 93 | 2 | 17 | 21 | 28
15 | O=C(NCC1CCCCC1)c1cccc(Oc2ccnc3ccccc23)c1 [compound 3] | 71 | 6 | 7 | 18 | 27

Next, values leading:

Row | inhibition at 0.05 µM [1] [%] | inhibition at 0.05 µM [2] [%] | inhibition at 0.05 µM [3] [%] | inhibition at 0.05 µM [4] [%] | inhibition at 0.05 µM [5] [%] | SMILES
16 | 79 | 0 | 4 | 9 | 21 | CNc1ccc2c(Oc3cccc(C(=O)NCc4cccc(F)c4)c3C)ccnc2c1 [compound 151]
17 | 85 | 19 | 11 | 22 | 25 | COc1cc2nccc(Oc3cccc(C(=O)NCc4cccc(F)c4)c3C)c2cc1OC [compound 107]
18 | 83 | 8 | 3 | 11 | 19 | CN(C)c1ccc2c(Oc3cccc(C(=O)NCc4ccncc4)c3)ccnc2c1 [compound 140]
19 | 81 | 37 | 27 | 25 | 40 | O=C(NCc1cccc(F)c1)c1ccc(F)c(Oc2ccnc3ccccc23)c1 [compound 101]
20 | 94 | 50 | 13 | 24 | 60 | COc1ccccc1CNC(=O)c1ccc(F)c(Oc2ccnc3cc(OC)c(OC)cc23)c1 [compound 92]
21 | 75 | 7 | 0 | 4 | 12 | CNc1ccc2c(Oc3cccc(C(=O)NCc4ccncc4)c3C)ccnc2c1 [compound 148]
22 | 93 | 27 | 32 | 30 | 45 | COc1cc2nccc(Oc3cc(C(=O)NCc4cccc(F)c4)ccc3F)c2cc1OC [compound 94]
23 | 79 | 6 | 5 | 6 | 23 | COc1ccc2c(Oc3cc(C(=O)NCc4ccncc4)ccc3F)ccnc2c1 [compound 98]
24 | 85 | 29 | 30 | 31 | 53 | COc1ccc2c(Oc3cc(F)cc(C(=O)NCc4ccccc4OC)c3)ccnc2c1 [compound 88]
25 | 75 | 26 | 0 | 17 | 20 | COc1ccccc1CNC(=O)c1ccc(F)c(Oc2ccnc3ccccc23)c1 [compound 99]
26 | 73 | 8 | 7 | -5 | 13 | Cc1c(Oc2ccnc3ccccc23)cccc1C(=O)NCc1cccc(F)c1 [compound 103]
27 | 77 | 3 | 8 | 14 | 32 | CN(C)c1ccc2c(Oc3cc(C(=O)NCc4ccncc4)ccc3F)ccnc2c1 [compound 143]
28 | 61 | 9 | 13 | 11 | 9 | CNc1ccc2c(Oc3cc(C(=O)NCc4ccncc4)ccc3F)ccnc2c1 [compound 142]
29 | 81 | 12 | 3 | 8 | 15 | Cc1c(Oc2ccnc3cc(N4CCC4)ccc23)cccc1C(=O)NCc1ccncc1 [compound 150]
30 | 85 | 26 | 31 | 22 | 28 | COc1ccc2c(Oc3cccc(C(=O)NCc4ccccc4)c3)ccnc2c1 [compound 85]
31 | 86 | 36 | 21 | 49 | 48 | COc1ccccc1CNC(=O)c1cc(F)cc(Oc2ccnc3cc(OC)c(OC)cc23)c1 [compound 89]
32 | 77 | 26 | 9 | 28 | 28 | COc1cc2nccc(Oc3cc(F)cc(C(=O)N[C@H](C)C4CCCCC4)c3)c2cc1OC [compound 90]
33 | 77 | 13 | 3 | 10 | 25 | Cc1c(Oc2ccnc3cc(N(C)C)ccc23)cccc1C(=O)NCc1cccc(F)c1 [compound 152]
